Test results taken from BindingDB's records for doi:10.1021/jm300185p (Takeda Pharmaceutical, 2012).

Target: Mitogen-activated protein kinase kinase kinase 7 (TAK1 kinase) (Homo sapiens) (UniProt O43318)
Test: Inhibition of N-terminus FLAG-tagged TAK1 expressed in baculovirus expression system using [gamma-33P]-ATP measured after 60 mins by scintillation counting

Chain of Mitogen-activated protein kinase kinase kinase 7 (TAK1 kinase) (Homo sapiens) (O43318 whole entry, looked up): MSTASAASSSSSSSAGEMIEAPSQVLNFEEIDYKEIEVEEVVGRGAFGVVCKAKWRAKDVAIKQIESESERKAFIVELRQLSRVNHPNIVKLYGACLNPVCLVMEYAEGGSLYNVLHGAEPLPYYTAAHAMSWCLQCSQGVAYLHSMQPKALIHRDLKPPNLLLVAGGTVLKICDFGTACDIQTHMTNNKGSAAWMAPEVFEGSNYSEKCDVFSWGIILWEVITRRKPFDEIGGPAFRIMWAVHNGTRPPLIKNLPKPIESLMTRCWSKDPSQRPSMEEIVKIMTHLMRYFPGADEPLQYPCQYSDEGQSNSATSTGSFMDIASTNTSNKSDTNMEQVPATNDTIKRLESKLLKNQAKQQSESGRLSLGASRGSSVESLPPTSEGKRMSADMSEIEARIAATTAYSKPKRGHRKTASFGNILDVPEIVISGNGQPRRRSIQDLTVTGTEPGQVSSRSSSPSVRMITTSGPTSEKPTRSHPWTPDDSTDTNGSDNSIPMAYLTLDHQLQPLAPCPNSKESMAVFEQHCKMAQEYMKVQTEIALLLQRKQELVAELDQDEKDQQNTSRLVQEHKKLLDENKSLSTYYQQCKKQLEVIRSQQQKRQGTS

CC(C)(N)C(=O)NCCn1ccc2ncnc(Nc3ccc(Oc4cccc5sncc45)c(Cl)c3)c21
IC50: > 10 µM
